Measurements as given in US20090247559A1 (Exelixis, Inc., priority 2007, published 2009).

Tests used:
CK2 = CK2 (Homo sapiens, UniProt P68400); assay: CK2 inhibition, biochemical chemiluminescence holoenzyme assay (Kinase Glo, IC50 determination); settings: Table 1 activity class; symbol given only if active; read-out: CK2 IC50 (Activity C)
Experimental: Characterization of CK2 Inhibition in a Biochemical Chemiluminesence Assay (IC50 Determination):
The IC50 evaluation of compounds against CK2 was performed in a Chemiluminesence Holoenzyme assay utilizing a Greiner 384-well white medium binding white plate format. […] The assay procedure involves the compound dilution scheme followed by addition of 10 μL of the substrate twice, followed by 10 μL twice of the respective enzyme or buffer to the designated well plates and subsequent pre-incubation of the compounds. Following an incubation period of 150 minutes at ambient temperature (24-27° C.), 10 μL of Kinase Glo (Promega) was added. The luminescence was measured following a Luminescence Protocol on a Victor plate reader.

[1] = molecular target: PIM (PIM-1, PIM-2, and/or PIM-3); assay: PIM-1, PIM-2 and PIM-3 inhibition, biochemical chemiluminescence assays (Kinase Glo, IC50 determination); settings: Table 1 activity class; PIM refers to PIM-1, PIM-2, and/or PIM-3; read-out: PIM IC50 (Activity B)

Sequence of CK2 (P68400 whole entry): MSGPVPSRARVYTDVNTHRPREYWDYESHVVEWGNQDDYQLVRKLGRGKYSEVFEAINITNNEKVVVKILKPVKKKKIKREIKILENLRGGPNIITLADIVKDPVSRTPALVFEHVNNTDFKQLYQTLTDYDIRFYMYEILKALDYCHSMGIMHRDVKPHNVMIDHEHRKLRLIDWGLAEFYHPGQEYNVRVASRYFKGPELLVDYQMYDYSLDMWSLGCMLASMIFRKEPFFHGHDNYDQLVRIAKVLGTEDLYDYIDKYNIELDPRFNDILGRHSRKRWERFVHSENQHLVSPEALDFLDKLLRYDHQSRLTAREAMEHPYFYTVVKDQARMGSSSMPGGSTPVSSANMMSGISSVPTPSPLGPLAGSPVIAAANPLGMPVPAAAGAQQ
Sequence of CK2 (P67870 whole entry partner): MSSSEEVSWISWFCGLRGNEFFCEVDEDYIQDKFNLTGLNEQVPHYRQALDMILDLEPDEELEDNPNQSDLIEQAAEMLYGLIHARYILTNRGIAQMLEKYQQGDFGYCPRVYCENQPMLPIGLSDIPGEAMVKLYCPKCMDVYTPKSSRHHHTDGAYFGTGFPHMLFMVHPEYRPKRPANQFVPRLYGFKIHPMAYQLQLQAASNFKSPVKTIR

Compound	IC50 (CK2)	IC50 [1]
COCCN1CCN(Cc2nc3c(oc4ccc(Br)cc43)c(=O)[nH]2)CC1 [Compound 151, 8-bromo-2-({4-[2-(methyloxy)ethyl]piperazin-1-yl}methyl)[1]benzofuro[3,2-d]pyrimidin-4(3H)-one]	< 10 µM	< 10 µM
COc1ccc2oc3c(=O)[nH]c(-c4ccncc4Cl)nc3c2c1 [Compound 152, 2-(3-chloropyridin-4-yl)-8-(methyloxy)[1]benzofuro[3,2-d]pyrimidin-4(3H)-one]	< 10 µM	< 10 µM
O=C(CCc1c[nH]cn1)Nc1ccc(-c2nc3c(oc4ccc(Br)cc43)c(=O)[nH]2)c(Cl)c1 [Compound 162, N-[4-(8-bromo-4-oxo-3,4-dihydro[1]benzofuro[3,2-d]pyrimidin-2-yl)-3-chlorophenyl]-3-(1H-imidazol-4-yl)propanamide]	< 10 µM	< 10 µM
CN1CCC(CNc2ccc(-c3nc4c(oc5ccc(Br)cc54)c(=O)[nH]3)c(Cl)c2)CC1 [Compound 163, 8-bromo-2-(2-chloro-4-{[(1-methylpiperidin-4-yl)methyl]amino}phenyl)[1]benzofuro[3,2-d]pyrimidin-4(3H)-one]	< 10 µM	< 10 µM
O=c1[nH]c(CNCc2ccncc2)nc2c1oc1ccc(Br)cc12 [Compound 165, 8-bromo-2-{[(pyridin-4-ylmethyl)amino]methyl}[1]benzofuro[3,2-d]pyrimidin-4(3H)-one]	< 10 µM	< 10 µM
NCCN1CCC(Cc2nc3c(oc4ccc(Br)cc43)c(=O)[nH]2)CC1 [Compound 168, 2-{[1-(2-aminoethyl)piperidin-4-yl]methyl}-8-bromo[1]benzofuro[3,2-d]pyrimidin-4(3H)-one]	< 10 µM	< 10 µM
COc1cccc2oc3c(=O)[nH]c(-c4ccc5[nH]nc(C)c5c4)nc3c12 [Compound 170, 2-(3-methyl-1H-indazol-5-yl)-9-(methyloxy)[1]benzofuro[3,2-d]pyrimidin-4(3H)-one]	< 10 µM	< 10 µM
COc1cccc2oc3c(=O)[nH]c(-c4ccc5[nH]nc(N)c5c4)nc3c12 [Compound 171, 2-(3-amino-1H-indazol-5-yl)-9-(methyloxy)[1]benzofuro[3,2-d]pyrimidin-4(3H)-one]	< 10 µM	< 10 µM
CCC(c1nc2c(oc3ccc(Br)cc32)c(=O)[nH]1)N1CCN(C)CC1 (stereo not drawn) [Compound 172, 8-bromo-2-[1-(4-methylpiperazin-1-yl)propyl][1]benzofuro[3,2-d]pyrimidin-4(3H)-one]	< 10 µM	< 10 µM
O=c1[nH]c(Cn2ccnc2-c2ccccc2)nc2c1oc1ccc(Br)cc12 [Compound 176, 8-bromo-2-[(2-phenyl-1H-imidazol-1-yl)methyl][1]benzofuro[3,2-d]pyrimidin-4(3H)-one]	< 10 µM	< 10 µM
CC(C)(NCc1nc2c(oc3ccc(Br)cc32)c(=O)[nH]1)C(N)=O [Compound 177, N-2-[(8-bromo-4-oxo-3,4-dihydro[1]benzofuro[3,2-d]pyrimidin-2-yl)methyl]-2-methylalaninamide]	< 10 µM	< 10 µM
CN(C)CC(C)(C)CNc1ccc(-c2nc3c(oc4ccc(Br)cc43)c(=O)[nH]2)c(Cl)c1 [Compound 179, 8-bromo-2-(2-chloro-4-{[3-(dimethylamino)-2,2-dimethylpropyl]amino}phenyl)[1]benzofuro[3,2-d]pyrimidin-4(3H)-one]	< 10 µM	< 10 µM
O=c1[nH]c(Nc2ccccc2)nc2c1oc1ccc(Br)cc12 [Compound 180, 8-bromo-2-(phenylamino)[1]benzofuro[3,2-d]pyrimidin-4(3H)-one]	< 10 µM	< 10 µM
CC(=O)N1CCN(Cc2nc3c(oc4ccc(Br)cc43)c(=O)[nH]2)CC1 [Compound 187, 2-[(4-acetylpiperazin-1-yl)methyl]-8-bromo[1]benzofuro[3,2-d]pyrimidin-4(3H)-one]	< 10 µM	< 10 µM
CC(C)(CN1CCCC1)NCc1nc2c(oc3ccc(Br)cc32)c(=O)[nH]1 [Compound 190, 8-bromo-2-{[(1,1-dimethyl-2-pyrrolidin-1-ylethyl)amino]methyl}[1]benzofuro[3,2-d]pyrimidin-4(3H)-one]	< 10 µM	< 10 µM
Cc1ccc(N2C[C@@H]3C[C@H]2CN3Cc2nc3c(oc4ccc(Br)cc43)c(=O)[nH]2)cc1 [Compound 192, 8-bromo-2-{[(1S,4S)-5-(4-methylphenyl)-2,5-diazabicyclo[2.2.1]hept-2-yl]methyl}[1]benzofuro[3,2-d]pyrimidin-4(3H)-one]	< 10 µM	< 10 µM
CN(C)CCCNc1nc2c(oc3ccc(Br)cc32)c(=O)[nH]1 [Compound 193, 8-bromo-2-{[3-(dimethylamino)propyl]amino}[1]benzofuro[3,2-d]pyrimidin-4(3H)-one]	< 10 µM	< 10 µM

Compound	IC50 (CK2)	IC50 [1]
O=c1[nH]c(N2CCCC2)nc2c1oc1ccc(Br)cc12 [Compound 196, 8-bromo-2-pyrrolidin-1-yl[1]benzofuro[3,2-d]pyrimidin-4(3H)-one]	< 10 µM	< 10 µM
CC(=O)N1CCC(c2nc3c(oc4ccc(Br)cc43)c(=O)[nH]2)CC1 [Compound 203, 2-(1-acetylpiperidin-4-yl)-8-bromo[1]benzofuro[3,2-d]pyrimidin-4(3H)-one]	< 10 µM	< 10 µM
O=c1[nH]c(CN2CC[C@H](O)C2)nc2c1oc1ccccc12 [Compound 204, 2-{[(3S)-3-hydroxypyrrolidin-1-yl]methyl}[1]benzofuro[3,2-d]pyrimidin-4(3H)-one]	< 10 µM	< 10 µM
CN(C)CCC(=O)N1CCC(c2nc3c(oc4ccc(Br)cc43)c(=O)[nH]2)CC1 [Compound 206, 8-bromo-2-[1-(N,N-dimethyl-beta-alanyl)piperidin-4-yl][1]benzofuro[3,2-d]pyrimidin-4(3H)-one]	< 10 µM	< 10 µM
CN(C)CCCC(=O)N1CCC(c2nc3c(oc4ccc(Br)cc43)c(=O)[nH]2)CC1 [Compound 207, 8-bromo-2-{1-[4-(dimethylamino)butanoyl]piperidin-4-yl}[1]benzofuro[3,2-d]pyrimidin-4(3H)-one]	< 10 µM	< 10 µM
O=C(c1ccc2[nH]cnc2c1)N1CCC(c2nc3c(oc4ccc(Br)cc43)c(=O)[nH]2)CC1 [Compound 208, 2-[1-(1H-benzimidazol-5-ylcarbonyl)piperidin-4-yl]-8-bromo[1]benzofuro[3,2-d]pyrimidin-4(3H)-one]	< 10 µM	< 10 µM
COCCC(=O)N1CCC(c2nc3c(oc4ccc(Br)cc43)c(=O)[nH]2)CC1 [Compound 209, 8-bromo-2-{1-[3-(methyloxy)propanoyl]piperidin-4-yl}[1]benzofuro[3,2-d]pyrimidin-4(3H)-one]	< 10 µM	< 10 µM
CN(C)CC(=O)N1CCC(c2nc3c(oc4ccc(Br)cc43)c(=O)[nH]2)CC1 [Compound 210, 8-bromo-2-[1-(N,N-dimethylglycyl)piperidin-4-yl][1]benzofuro[3,2-d]pyrimidin-4(3H)-one]	< 10 µM	< 10 µM
NCc1cc(Cl)c(-c2nc3c(oc4ccc(Br)cc43)c(=O)[nH]2)cc1F [Compound 211, 2-[4-(aminomethyl)-2-chloro-5-fluorophenyl]-8-bromo[1]benzofuro[3,2-d]pyrimidin-4(3H)-one]	< 10 µM	< 10 µM
CN1CCN(CC(C)(C)NCc2nc3c(oc4ccc(Br)cc43)c(=O)[nH]2)CC1 [Compound 212, 8-bromo-2-({[1,1-dimethyl-2-(4-methylpiperazin-1-yl)ethyl]amino}methyl)[1]benzofuro[3,2-d]pyrimidin-4(3H)-one]	< 10 µM	< 10 µM
O=c1[nH]c(NC2CCNCC2)nc2c1oc1ccc(Br)cc12 [Compound 213, 8-bromo-2-(piperidin-4-ylamino)[1]benzofuro[3,2-d]pyrimidin-4(3H)-one]	< 10 µM	< 10 µM
CC(C)(C)OC(=O)NC1CCC(c2nc3c(oc4ccc(Br)cc43)c(=O)[nH]2)CC1 (stereo not drawn) [Compound 222, 1,1-Dimethylethyl [4-(8-bromo-4-oxo-3,4-dihydro[1]benzofuro[3,2-d]pyrimidin-2-yl)cyclohexyl]carbamate]	< 10 µM	< 10 µM
CN(C)CCN1CCN(c2nc3c(oc4ccc(Br)cc43)c(=O)[nH]2)CC1 [Compound 227, 8-bromo-2-{4-[2-(dimethylamino)ethyl]piperazin-1-yl}[1]benzofuro[3,2-d]pyrimidin-4(3H)-one]	< 10 µM	< 10 µM
CN1CCC(N2CCN(c3nc4c(oc5ccc(Br)cc54)c(=O)[nH]3)CC2)CC1 [Compound 228, 8-bromo-2-[4-(1-methylpiperidin-4-yl)piperazin-1-yl][1]benzofuro[3,2-d]pyrimidin-4(3H)-one]	< 10 µM	< 10 µM
O=c1[nH]c(CN2C[C@H]3CNC[C@H]3C2)nc2c1oc1ccc(Br)cc12 [Compound 229, 8-bromo-2-[(3aR,6aS)-hexahydropyrrolo[3,4-c]pyrrol-2(1H)-ylmethyl][1]benzofuro[3,2-d]pyrimidin-4(3H)-one]	< 10 µM	< 10 µM
O=C(C1CCOC1)N1CCC(c2nc3c(oc4ccc(Br)cc43)c(=O)[nH]2)CC1 (stereo not drawn) [Compound 233, 8-bromo-2-[1-(tetrahydrofuran-3-ylcarbonyl)piperidin-4-yl][1]benzofuro[3,2-d]pyrimidin-4(3H)-one]	< 10 µM	< 10 µM
